“Also recorded” adds a separate entry of the source.
What was measured:
[1] = test system: Tnfα, Il-1β, Il-6 and ECE-1 in placentas; assay: Western blot analysis of placental lysates from LPS-stimulated mice; assay type: in vivo; conditions: SKI II treated group vs LPS control group
Description: (§1) In Vivo Assay. A total of 17 timed pregnant embryonic day (E) 15.5 mice, weighing between 28 and 35 g, were used for in vivo studies. The control group (n=7) was injected intraperitoneally (ip) with 50 mg/kg lipopolysaccharide (LPS) (serotype 026:B6; Sigma) dissolved in 0.5 ml PBS at T=0 and 50 μl PEG 400 at T=1 and 7 h. The treatment group (n=7) was also injected ip with the same dose of LPS and then injected with 50 mg/kg SphK inhibitor (SKI II) dissolved in PEG 400 at T=1 and 7 h. The sham group (n=3) was injected ip with 0.5 ml PBS at T=0 and 50 μl PEG 400 at T=1 and 7 h. After injections at T=7 h, mice were continuously observed for time of delivery and number of pups dropped. […] All mice were euthanized by carbon dioxide asphyxiation and necropsied to confirm pregnancy and the number of pups retained in utero was recorded. The retained placentas and uteri were harvested and stored at −80° C. or in 10% neutral buffered formalin at room temperature.
Gel Electrophoresis. Frozen placentas were allowed to thaw on ice. Tissues were homogenized in 0.25 ml ice cold lysis buffer, using a Polytron homogenizer. The samples were homogenized on ice for 2 min at 15 min intervals. This procedure was continued for 2 h and the final homogenates were centrifuged at 10,000×g for 10 min. Volumes of supernatant containing […] of protein based on BCA assay, using bovine serum albumin as standard, were diluted in_NuPAGE® LDS sample buffer and the samples were heated at 95° C. for 5 minutes. Bis-Tris gels were used for protein separation. Gel electrophoresis was carried out in an XCell SureLock Mini-Cell apparatus. The gels were allowed to run for 45 minutes with MOPS running buffer at 125 mA and 200V. Proteins were then transferred to a polyvinylidene difluoride (PVDF) membrane, using an XCell II Blot Module. Transfer was carried out for 2 h on ice at a 170 mA current and a constant voltage of 30 V with NuPAGE transfer buffer
Western Blot Analysis. […] The membranes were analyzed for different proteins using their respective primary antibodies, i.e. TNFα, IL-1β, IL-6, IL-10 and ECE-1 diluted in the blocker solution overnight at 4° C. […] They were then treated with ECL Plus western blotting detection system and the chemiluminescence produced by the chemical reaction was detected by exposure to an autoradiography film. […] The protein content was quantified using Image J software (from NIH). […]
(§2) Statistical Analysis. For in vivo studies, the effect of SKI II on the percent of LPS stimulated mice delivering and on the percent of pups rescued from spontaneous abortion was evaluated with the Chi square and Fisher exact tests, respectively. […]

[2] = test system: LPS-stimulated timed pregnant mice; assay: LPS-induced preterm birth in timed pregnant mice (in vivo assay)
Description: as §1
(§3) Statistical Analysis. For in vivo studies, the effect of SKI II on the percent of LPS stimulated mice delivering and on the percent of pups rescued from spontaneous abortion was evaluated with the Chi square and Fisher exact tests, respectively. Differences in rates of PTB and rates of pups delivered over time were evaluated with log-rank (Mantel-Cox) or Gehan-Breslow-Wilcoxon test. The U-test along with Analysis of Variance (ANOVA) and Tukey's multiple comparison test were used to evaluate differences in inflammatory infiltration in histologic sections. Differences in mean expression of cytokine proteins in immunoblots and in immunohistochemistry were determined using ANOVA with Tukey's multiple comparison test.

[3] = test system: Tnfα, Il-1β, Il-6 in placental labyrinth; assay: Immunohistochemistry of cytokines in placental labyrinth; assay type: in vivo, mice; conditions: SKI II vs LPS
Description: as §1
Immunohistochemistry (IHC). Formalin fixed paraffin-embedded tissue sections were used for IHC. The sections were deparaffinized by washing in xylene for 3 min. They were then rehydrated by washing in 100% isopropyl alcohol (2 changes), 95% alcohol, 80% alcohol, 70% alcohol and distilled water for 3 min each. The sections were incubated for 5 min with peroxidase block (3% hydrogen peroxide in water) and washed in distilled water for 3 min. […] Image-Pro Premier DAB analysis software was used for quantification of the results. […]
as §3, with “The U-test along with Analysis of Variance (ANOVA) and Tukey's multiple comparison test were used to evaluate differences in inflammatory infiltration in histologic sections.” left out

[4] = test system: inflammatory cells (neutrophils) in placental labyrinth; assay: Histology (H & E): inflammatory cell infiltration of placental labyrinth; assay type: in vivo; conditions: SKI II vs LPS-induced mice; P<0.05
Description: as §1, with “The retained placentas and uteri were harvested and stored at −80° C. or in 10% neutral buffered formalin at room temperature.” left out
Histology. […] The number of polymorphonuclear neutrophils (PMNs) were counted in the three fields and the average value was recorded. Based on the average number of neutrophils per 400× field recorded, the slides were assigned grades as follows: 0:0-5 cells, 1:6-50 cells, 2:51-100 and 3:greater than 100. […]
as §2

Oc1ccc(Nc2nc(-c3ccc(Cl)cc3)cs2)cc1 [SKI II]
ECE-1 expression in placenta (Western blot) [1]: clearly suppressed; also recorded: significantly suppressed
Il-1β expression in placental lysates (Western blot) ([1]; P<0.05): reduced; also recorded: significantly suppressed
Il-6 expression in placental lysates (Western blot) ([1]; P<0.05): reduced; also recorded: significantly suppressed
Tnfα expression in placental lysates (Western blot) ([1]; P<0.05): reduced; also recorded: significantly suppressed
Macroscopic congenital anomalies in pups ([2]; 97 pups of LPS control and SKI II groups): no macroscopic congenital anomalies
Percent of mice delivered prematurely ([2]; LPS 50 mg/kg, SKI II 50 mg/kg at T=1 and 7 h, 1 out of 7 mice, 24 h): 14%
Percent of pups dropped prematurely ([2]; LPS 50 mg/kg, SKI II 50 mg/kg at T=1 and 7 h, 2 out of 50 pups, 24 h): 4%
Rate of pup survival (Kaplan-Meier survival curves, log rank test) ([2]; SKI II treated vs LPS control dams, P<0.0001): statistically significant difference; also recorded: significantly improved
Litter size, fetal growth and development ([2]; observed throughout the study): No significant changes
Placental labyrinthine level of Il-1β (immunohistochemistry) ([3]; P<0.0001): significantly reduced; also recorded: significantly suppressed
Placental labyrinthine level of Tnfα (immunohistochemistry) ([3]; P<0.0001): significantly reduced; also recorded: significantly suppressed
Placental labyrinthine level of Il-6 (immunohistochemistry) ([3]; P<0.01): significantly reduced; also recorded: significantly suppressed
Inflammatory cell infiltrate in placental labyrinth [4]: significantly reduced; also recorded: subsides significantly
